Test results from patent publication US20260176267A1, “PREPARATION OF IMIDAZOPYRIDINE AND IMIDAZOPYRIDAZINE DERIVATIVES AS NOVEL DIACYLGLYCERIDE O-ACYLTRANSFERASE 2 INHIBITORS” (Merck Sharp & Dohme LLC, priority 2022, published 2026).

target: T1, human DGAT2 (hDGAT2) (Homo sapiens, UniProt Q96PD7); assay: DGAT2 Enzymatic Activity Assay; format: biochemical; settings: membrane prep of Sf-9 cells expressing hDGAT2; 13C18-triolein product by LC/MS/MS; 25 μM diolein, 5 μM 13C oleoyl-CoA, rt
T1 construct: made in house; host or cells: Sf-9 insect cells (baculovirus), membrane fraction
T1 sequence (Q96PD7 1-388): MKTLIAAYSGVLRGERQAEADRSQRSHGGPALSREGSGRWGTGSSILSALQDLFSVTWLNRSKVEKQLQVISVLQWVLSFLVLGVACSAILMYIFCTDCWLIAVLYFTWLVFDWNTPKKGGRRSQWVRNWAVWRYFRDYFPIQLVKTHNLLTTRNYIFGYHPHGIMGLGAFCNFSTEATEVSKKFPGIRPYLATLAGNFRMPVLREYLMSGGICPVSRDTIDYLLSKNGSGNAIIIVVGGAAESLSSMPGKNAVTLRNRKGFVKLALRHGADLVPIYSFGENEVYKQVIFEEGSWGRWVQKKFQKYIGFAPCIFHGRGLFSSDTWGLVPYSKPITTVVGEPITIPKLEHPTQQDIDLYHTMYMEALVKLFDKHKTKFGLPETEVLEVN
Description: Sf-9 insect cells were maintained in Grace's insect cell culture medium with 10% heated-inactivated fetal bovine serum, 1% Pluronic F-68 and 0.14 μg/ml Kanamycine sulfate at 27° C. in a shaker incubator. After infection with untagged baculovirus expressing human DGAT2 (hDGAT2) at multiplicity of infection (MOI) 3 for 48 hours, cells were harvested. Cell pellets were suspended in buffer containing 10 mM Tris-HCl pH 7.5, 1 mM EDTA, 250 mM sucrose and Complete Protease Inhibitor Cocktail (Sigma Aldrich), and sonicated on ice. Cell debris were removed by centrifugation at 2000×g for 15 minutes. Membrane fractions were isolated by ultracentrifugation (100,000×g), resuspended in the same buffer, and frozen (−80° C.) for later use. The protein concentration was determined with the Pierce™ BCA Protein Assay Kit (Thermo Fisher Scientific).
LC/MS/MS analyses were performed using Thermal Fisher's LX4-TSQ Vantage system. This system consists of an Agilent binary high-performance liquid chromatography (HPLC) pump and a TSQ Vantage triple quadrupole MS/MS instrument. For each sample, 2 μL samples from the top organic layer of in-plate liquid-liquid extraction were injected onto a Thermo Betabasic C4 column (2.1 mm×20 mm, 5 μm particle size). The samples were then eluted using the following conditions; mobile phase: Isopropanol:acetonitrile/10 mM ammonium formate=50/35/15 (v/v/v), flow rate: 0.8 mL/min, temperature: 25° C. Data was acquired in positive mode using a heated electrospray ionization (HESI) interface. The operational parameters for the TSQ Vantage MS/MS instrument were a spray voltage of 3000 V, capillary temperature of 280° C., vaporizer temperature 400° C., sheath gas 45 arbitrary unit. Aux gas 10 arbitrary units. […] The peak area was integrated by Xcalibur Quan software. The ratio between the ^13C18 triolein generated in the reaction and spiked in internal standard ^13C21-triolein was used to generate percentage inhibition and IC50 values. Compound percentage inhibition was calculated by the following formula: Inhibition %=1−[(compound response−low control)/(high control−low control)]×100%.
DGAT2 activity was determined by measuring the amount of enzymatic product ^13C18-triolein (^13C-1,2,3-Tri(cis-9-octadecenoyl)glycerol) using the membrane prep mentioned above. The assay was carried out in ABgene 384-well assay plates in a final volume of 25 μL at rt.

Row | SMILES | IC50
1 | CC1(NC(=O)c2nc3ccc(Oc4ncccc4OCC(F)(F)F)cn3c2CO)CCS(=O)(=O)CC1 [Example 137, 3-(hydroxymethyl)-N-(4-methyl-1,1-dioxo-thian-4-yl)-6-[3-(2,2,2-trifluoroethoxy)pyridine-2-yl]oxy-imidazo[1,2-a]pyridine-2-carboxamide] | 11 nM
2 | Cc1c(C(=O)NC23CC(F)(C2)C3)nc2ccc(Oc3ncc(F)cc3OCC(F)F)cn12 [Example 99] | 56 nM
3 | Cc1c(C(=O)NCC2(C)CS(=O)(=O)C2)nc2ccc(Oc3ncc(F)cc3OCC(F)(F)F)cn12 [Example 110, 6-[[5-fluoro-3-(2,2,2-trifluoroethoxy)-2-pyridyl]oxy]-3-methyl-N-[(3-methyl-1,1-dioxo-thietan-3-yl)methyl]imidazo[1,2-a]pyridine-2-carboxamide] | 957 nM
4 | Cc1c(C(=O)NC2(C)CCS(=O)(=O)CC2)nc2ccc(Oc3ncc(C(C)C)cc3OCC(F)(F)F)cn12 [Example 75, 6-[[5-isopropyl-3-(2,2,2-trifluoroethoxy)-2-pyridyl]oxy]-3-methyl-N-(4-methyl-1,1-dioxo-thian-4-yl)imidazo[1,2-a]pyridine-2-carboxamide] | 6.6 nM
5 | Cc1c(Oc2nccnc2OCC(F)F)ccc2nc(C(=O)NC3(C)CCS(=O)(=O)CC3)cn12 [Example 46, 6-[3-(2,2-difluoroethoxy)pyrazin-2-yl]oxy-5-methyl-N-(4-methyl-1,1-dioxo-thian-4-yl)imidazo[1,2-a]pyridine-2-carboxamide] | 42 nM
6 | Cc1c(C(=O)NC2CCS(=O)(=O)C(C)(C)C2)nc2ccc(Oc3ncc(F)cc3OCC(F)F)cn12 (stereo not drawn) [Example 93, 6-[[3-(2,2-difluoroethoxy)-5-fluoro-2-pyridyl]oxy]-N-(2,2-dimethyl-1,1-dioxo-thian-4-yl)-3-methyl-imidazo[1,2-a]pyridine-2-carboxamide] | 2.9 nM
7 | Cc1c(Oc2ncc(Cl)cc2OCC(F)(F)F)ccc2nc(C(=O)NC3(C)CCS(=O)(=O)CC3)c(Cl)n12 [Example 141, 3-chloro-6-[[5-chloro-3-(2,2,2-trifluoroethoxy)-2-pyridyl]oxy]-5-methyl-N-(4-methyl-1,1-dioxo-thian-4-yl)imidazo[1,2-a]pyridine-2-carboxamide] | 2.6 nM
8 | CC(F)(F)COc1cc(F)cnc1Oc1ccc2nc(C(=O)NC3(C)CCS(=O)(=O)CC3)cn2n1 [Example 156, 6-[[3-(2,2-Difluoropropoxy)-5-fluoro-2-pyridyl]oxy]-N-(4-methyl-1,1-dioxo-thian-4-yl)imidazo[1,2-b]pyridazine-2-carboxamide] | 988 nM
9 | CCC1(NC(=O)c2nc3ccc(Oc4ncc(F)cc4OCC(F)(F)F)cn3c2C)CCS(=O)(=O)CC1 [Example 77, N-(4-ethyl-1,1-dioxo-thian-4-yl)-6-[[5-fluoro-3-(2,2,2-trifluoroethoxy)-2-pyridyl]oxy]-3-methyl-imidazo[1,2-a]pyridine-2-carboxamide] | 33 nM
10 | Cc1c(C(=O)NC2(C)CCS(=O)(=O)C(C)(C)C2)nc2ccc(Oc3ncc(Cl)cc3OCC(F)F)cn12 (stereo not drawn) [Example 100, 6-[[5-chloro-3-(2,2-difluoroethoxy)-2-pyridyl]oxy]-3-methyl-N-(2,2,4-trimethyl-1,1-dioxo-thian-4-yl)imidazo[1,2-a]pyridine-2-carboxamide] | 114 nM
11 | Cc1c(C(=O)NC2(C)CCS(=O)(=O)CC2)nc2ccc(Oc3ncc(S(C)(=O)=O)cc3OCC(F)(F)F)cn12 [Example 150, 3-methyl-N-(4-methyl-1,1-dioxo-thian-4-yl)-6-[[5-methylsulfonyl-3-(2,2,2-trifluoroethoxy)-2-pyridyl]oxy]imidazo[1,2-a]pyridine-2-carboxamide] | 58 nM
12 | CC(F)(F)COc1cc(Cl)cnc1Oc1ccc2nc(C(=O)NC3(C)CCS(=O)(=O)CC3)cn2c1 [Example 18, 6-[[5-chloro-3-(2,2-difluoropropoxy)-2-pyridyl]oxy]-N-(4-methyl-1,1-dioxo-thian-4-yl)imidazo[1,2-a]pyridine-2-carboxamide] | 2 nM
13 | Cc1cc2nc(C(=O)NC3(C)CC(F)(F)C3)cn2cc1Oc1ncc(F)cc1OCC(F)F [Example 25, 6-[[3-(2,2-difluoroethoxy)-5-fluoro-2-pyridyl]oxy]-N-(3,3-difluoro-1-methyl-cyclobutyl)-7-methyl-imidazo[1,2-a]pyridine-2-carboxamide] | 3.8 nM
14 | O=C(N[C@H]1CCCC(F)(F)[C@@H]1O)c1cn2nc(Oc3ncc(Cl)cc3OCC(F)(F)F)ccc2n1 [Example 161, 6-((5-chloro-3-(2,2,2-trifluoroethoxy)pyridin-2-yl)oxy)-N-((1S,2R)-3,3-difluoro-2-hydroxycyclohexyl)imidazo[1,2-b]pyridazine-2-carboxamide] | 37 nM
15 | Cc1ccc(OCC(F)(F)F)c(Oc2ccc3nc(C(=O)NC4(C)CCS(=O)(=O)CC4)c(C)n3c2)n1 [Example 111] | 298 nM
16 | Cc1c(C(=O)NC2(C)CCS(=O)(=O)CC2)nc2ccc(OCc3ccc(F)cc3)cn12 [Example 126, 6-[(4-fluorophenyl)methoxy]-3-methyl-N-(4-methyl-1,1-dioxo-thian-4-yl)imidazo[1,2-a]pyridine-2-carboxamide] | 465 nM
17 | CO[C@]1(C(F)(F)F)C[C@H](NC(=O)c2nc3ccc(Oc4ncc(F)cc4OCC(F)F)cn3c2C)C1 [Example 83, 6-[[3-(2,2-difluoroethoxy)-5-fluoro-2-pyridyl]oxy]-N-[3-methoxy-3-(trifluoromethyl)cyclobutyl]-3-methyl-imidazo[1,2-a]pyridine-2-carboxamide] | 12 nM
18 | CC(F)(F)COc1cc(F)cnc1Oc1cn2cc(C(=O)NC3(C)CCS(=O)(=O)CC3)nc2cc1F [Example 47, 6-((3-(2,2-difluoropropoxy)-5-fluoropyridin-2-yl)oxy)-7-fluoro-N-(4-methyl-1,1-dioxidotetrahydro-2H-thiopyran-4-yl)imidazo[1,2-a]pyridine-2-carboxamide] | 8.7 nM
19 | Cc1c(Oc2ncc(Cl)cc2OCC(F)(F)F)ccc2nc(C(=O)NC3(C)CCS(=O)(=O)CC3)cn12 [Example 17] | 1.4 nM
20 | Cc1c(C(=O)NC2(C)CCS(=O)(=O)CC2)nc2ccc(Oc3ncc(Cl)cc3OCC3(F)CC3)cn12 [Example 81, 6-[[5-chloro-3-[(1-fluorocyclopropyl)methoxy]-2-pyridyl]oxy]-3-methyl-N-(4-methyl-1,1-dioxo-thian-4-yl)imidazo[1,2-a]pyridine-2-carboxamide] | 3.5 nM
21 | Cc1cc2nc(C(=O)NC3(C)CCS(=O)(=O)CC3)c(C)n2nc1Oc1ncc(F)cc1OCC(F)(F)F [Example 170, 6-[[5-fluoro-3-(2,2,2-trifluoroethoxy)-2-pyridyl]oxy]-3,7-dimethyl-N-(4-methyl-1,1-dioxo-thian-4-yl)imidazo[1,2-b]pyridazine-2-carboxamide] | 15 nM
22 | CC1(NC(=O)c2cn3nc(Oc4ncc(Cl)cc4OCC(F)F)ccc3n2)CCS(=O)(=O)CC1 [Example 153, 6-((5-Chloro-3-(2,2-difluoroethoxy)pyridin-2-yl)oxy)-N-(4-methyl-1,1-dioxidotetrahydro-2H-thiopyran-4-yl)imidazo[1,2-b]pyridazine-2-carboxamide] | 3.2 nM
23 | CC1(NC(=O)c2cn3cc(Oc4ncc(F)cc4OCC(F)(F)F)c(F)cc3n2)CCS(=O)(=O)CC1 [Example 21, 7-fluoro-6-[[5-fluoro-3-(2,2,2-trifluoroethoxy)-2-pyridyl]oxy]-N-(4-methyl-1,1-dioxo-thian-4-yl)imidazo[1,2-a]pyridine-2-carboxamide] | 1.8 nM
24 | CC1(CNC(=O)c2cn3cc(Oc4ncc(Cl)cc4OCC(F)(F)F)ccc3n2)CS(=O)(=O)C1 [Example 42, 6-[[5-chloro-3-(2,2,2-trifluoroethoxy)-2-pyridyl]oxy]-N-[(3-methyl-1,1-dioxo-thietan-3-yl)methyl]imidazo[1,2-a]pyridine-2-carboxamide] | 50 nM
